From patent US9228175B2, “Genes encoding a novel type of lysophophatidylcholine acyltransferases and their use to increase triacylglycerol production and/or modify fatty acid composition” (National Research Counsel of Canada, priority 2006, dated 2016)

How the values were obtained:
Format in all cases: biochemical
LCA1 = target: T1, LCA1 (Saccharomyces cerevisiae, UniProt Q08548); test: Zn^2+ / Mg^2+ effect on LPCAT activity of LCA1 (in vitro assay, microsomes of lca1Δ over-expressing LCA1); conditions: for LPCAT activity (% control): 5.6 μM palmitoyl-LPC, 11.25 μM stearyl-CoA, 1.5 μg microsomal protein, pH 7.4, two minutes, mean±S.D.
T1 construct: Saccharomyces cerevisiae YOR175c ORF was PCR-amplified; made in house; host or cells: S. cerevisiae YOR175c deletion strain Y02431 (lca1Δ), pYES2.1, galactose induction; microsomal fraction
T1 sequence (Q08548 1-619): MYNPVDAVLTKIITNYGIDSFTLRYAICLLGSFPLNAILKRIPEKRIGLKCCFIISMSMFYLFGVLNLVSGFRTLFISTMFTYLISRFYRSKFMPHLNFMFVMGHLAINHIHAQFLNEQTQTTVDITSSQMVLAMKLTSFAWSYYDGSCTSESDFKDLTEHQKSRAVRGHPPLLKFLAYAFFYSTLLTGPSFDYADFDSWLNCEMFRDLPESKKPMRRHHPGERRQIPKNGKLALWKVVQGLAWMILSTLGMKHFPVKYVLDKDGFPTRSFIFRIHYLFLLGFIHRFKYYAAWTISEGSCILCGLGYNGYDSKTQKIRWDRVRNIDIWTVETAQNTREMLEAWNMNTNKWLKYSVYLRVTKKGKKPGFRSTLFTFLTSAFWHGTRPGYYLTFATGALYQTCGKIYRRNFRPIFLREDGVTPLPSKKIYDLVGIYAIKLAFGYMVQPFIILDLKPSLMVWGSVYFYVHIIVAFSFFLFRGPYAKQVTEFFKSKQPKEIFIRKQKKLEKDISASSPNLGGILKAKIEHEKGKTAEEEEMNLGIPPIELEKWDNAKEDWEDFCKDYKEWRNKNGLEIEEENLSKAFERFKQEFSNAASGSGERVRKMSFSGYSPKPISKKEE
Method: Microsomal preparation: Yeast strains were first grown in 15 ml of SC-Leu-His-Ura medium containing 2% glucose. Protein expression induction was carried out as described in Invitrogen manufacturer manual for yeast expression vector pYES2.1. After 24 hours of growth in SC+2% galactose+1% raffinose induction conditions, the cells were washed, first with distilled water and then with wall-breaking buffer (50 mM Tris-HCl, 1 mM EDTA, 0.6 M sorbitol, pH 7.4, 1 mM DTT). After centrifugation at 4,000 rpm (Eppendorf Centrifuge 5145C), the cells were resuspended in 1 ml wall-breaking buffer with 10 μl yeast protease cocktail (Sigma), and shaken vigorously in the presence of acid-washed glass beads (diameter 0.5 mm). The resultant homogenate was centrifuged at 12,000 rpm for ten minutes at 4° C. The decanted supernatant was further centrifuged at 100,000×g for 90-120 minutes at 4° C. The supernatant was discarded, and the pellet was suspended in homogenization buffer containing 20% glycerol and frozen at −80° C. until use. Protein concentration was measured using Bio-Rad Protein Assay Kit for final enzyme activity calculation.
In Vitro Assay of LPCAT activity: LPCAT substrate specificity was determined by measuring incorporation of [^14C] lysophosphatidylcholine or [^14C] palmitoyl-CoA into phosphatidylcholine. All assays were performed at least twice. For lysophospholipid substrate specificity assessment, 400 μl HEPES buffer contained 3 μg microsomal protein, 50 μM of lysophospholipid substrates and 112.5 μM [^14C] palmitoyl-CoA (5.5 nCi/nmol). For acyl-CoA substrate selectivity analysis, 400 μl HEPES reaction buffer (pH7.4, 0.1 M) contained 3 μg microsomal protein, 50 μM acyl-CoA and 112.5 μM [^14C] […] (1.35 nCi/nmol). Reaction was allowed for 2 minutes at 30° C. with 100 rpm shaking. The reaction products were extracted with chloroform/methanol (2/1, v/v) and separated with Merck silica G60 TLC plates. Spots corresponding to different phospholipid species products were scraped off and ^14C incorporation were scintillation counted. Different concentrations of ZnCl2 were added in to reactions for Zn^2+ inhibitory effect assay.
Results are expressed as means±S.D. The lca1Δ over-expressing LCA1 was used to assess Zn^2+ effect. The reactions contained 5.6 μM palmitoyl-LPC (1.35 nCi/nmol), 1.5 μg microsomal proteins, 0.1 M HEPES (pH 7.4), 11.25 μM stearyl-CoA and indicated concentration of ZnCl2. The reaction was stopped after two minutes by adding 2 ml of chloroform/methanol solution (2:1).

AtLPCAT1 = target: T2, AtLPCAT1 (Arabidopsis thaliana, UniProt F4IDU4); test: Zn^2+ sensitivity of AtLPCAT1, in vitro LPCAT assay; conditions: increasing ZnCl2; 25 μM palmitoyl-LPC, 25 μM stearyl-CoA, 20 μg microsomal protein, pH 7.4
T2 construct: made in house; host or cells: S. cerevisiae YOR175c deletion strain BY02431 (lca1Δ), pYES2.1 TOPO, galactose induction; microsomal protein
T2 sequence (F4IDU4 1-462): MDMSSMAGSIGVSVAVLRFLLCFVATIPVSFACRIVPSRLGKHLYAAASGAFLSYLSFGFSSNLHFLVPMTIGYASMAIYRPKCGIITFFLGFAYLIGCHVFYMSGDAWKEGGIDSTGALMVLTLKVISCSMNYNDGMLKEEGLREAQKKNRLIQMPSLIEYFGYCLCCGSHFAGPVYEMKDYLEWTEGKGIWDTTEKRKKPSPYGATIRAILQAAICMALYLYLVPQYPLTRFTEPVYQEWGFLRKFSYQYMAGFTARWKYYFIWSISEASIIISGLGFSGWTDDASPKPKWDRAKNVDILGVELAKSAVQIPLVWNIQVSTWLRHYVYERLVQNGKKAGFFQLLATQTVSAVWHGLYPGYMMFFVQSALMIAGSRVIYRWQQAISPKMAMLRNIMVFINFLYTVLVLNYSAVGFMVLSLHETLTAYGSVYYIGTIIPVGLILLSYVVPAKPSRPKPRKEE
Method: (§1) FIG. 19 is a graph depicting the inhibitory effect of Zn^2+ on AtLPCATs activity. The lca1Δ over-expressing AtLPCATs was used to asses Zn^2+ effect. The reactions contained 25 μM palmitoyl-LPC (1.35 nCi/nmol), 20 μg microsomal proteins, 0.1 M HEPES (pH 7.4), 25 μM stearyl-CoA and indicated concentration of ZnCl2.
(§2) AtLPCAT substrate specificity was determined by counting incorporation of 14C-labeled lysophosphatidylcholine or 14C-labeled palmitoyl-CoA into phosphatidylcholine. All assays were performed at least twice. […] reaction mixture contained […] microsomal protein, […] acyl-CoA and […], pH7.4. 14C-lysophosphatidylcholine (1.4 nCi/nmol) or 14C-palmityl-CoA (5.5 nCi/nmol) was used to assess fatty-CoA or lyso-lipid substrate specificity. Reaction was allowed for ten minutes at 30° C. All radiolabel chemicals for these assays were purchased from ARC, Inc.

AtLPCAT2 = target: T3, AtLPCAT2 (Arabidopsis thaliana, UniProt Q9CAN8); test: Zn^2+ sensitivity of AtLPCAT2, in vitro LPCAT assay; conditions: increasing ZnCl2; 25 μM palmitoyl-LPC, 25 μM stearyl-CoA, 20 μg microsomal protein, pH 7.4
T3 construct: made in house; host or cells: S. cerevisiae YOR175c deletion strain BY02431 (lca1Δ), pYES2.1 TOPO, galactose induction; microsomal protein
T3 sequence (Q9CAN8 1-465): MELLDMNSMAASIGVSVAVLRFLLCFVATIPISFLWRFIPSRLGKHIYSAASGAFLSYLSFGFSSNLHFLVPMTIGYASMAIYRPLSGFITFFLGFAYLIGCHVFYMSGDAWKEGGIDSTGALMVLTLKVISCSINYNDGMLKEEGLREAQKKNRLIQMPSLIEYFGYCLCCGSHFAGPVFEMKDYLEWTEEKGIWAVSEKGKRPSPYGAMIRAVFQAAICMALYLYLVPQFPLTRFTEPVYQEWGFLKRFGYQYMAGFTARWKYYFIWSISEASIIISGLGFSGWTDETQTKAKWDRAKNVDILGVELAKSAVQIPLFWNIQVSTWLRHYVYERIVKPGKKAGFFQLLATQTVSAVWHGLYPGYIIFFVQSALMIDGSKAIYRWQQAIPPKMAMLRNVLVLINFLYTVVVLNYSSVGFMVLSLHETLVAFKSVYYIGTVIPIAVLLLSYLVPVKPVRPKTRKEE
Method: as §1, §2

**Q.** What does the source list for `[Cl-].[Cl-].[Zn+2]` [ZnCl2]?
**A.** Concentration at which the maximum increase of LPCAT activity was observed (LCA1): 25 µM; LPCAT activity (% control) (LCA1; 5 μM ZnCl2): 98 ± 5.9 % control; LPCAT activity (% control) (LCA1; 10 μM ZnCl2): 136.8 ± 3.9 % control; LPCAT activity (% control) (LCA1; 25 μM ZnCl2): 149.7 ± 12.0 % control; LPCAT activity (% control) (LCA1; 0.1 mM ZnCl2): 35 ± 22.4 % control; LPCAT activity (% control) (LCA1; 20 mM ZnCl2): 6 ± 2.0 % control; Effect on LPCAT activity of LCA1 (LCA1; lower (10-25 μM) concentration): enhanced LPCAT activity; Effect on LPCAT activity of LCA1 (LCA1; range between 0.1 mM to 20 mM): significant reduction; AtLPCAT1 activity with Zn^2+ added (AtLPCAT1): decreased with increasing concentration; AtLPCAT2 activity with Zn^2+ added (AtLPCAT2): decreased with increasing concentration
